According to patent publication US7589193B2, “C-aryl glucoside SGLT2 inhibitors and method” (Bristol-Myers Squibb Company, priority 2004, dated 2009):
Like-named read-outs stand apart in the source and are kept apart here.

What was measured:
[1] = tested on: STZ diabetic rats; assay: Determination of blood glucose effect in streptozotocin-treated diabetic rats (Study A); assay type: in vivo, rat (male Sprague Dawley); conditions: oral 0.1 mg/kg
Description: I. Protocol for Study A: Determination of Blood Glucose Effect in Streptozotocin-Treated Diabetic Rats
The following analysis was utilized to reasonably predict the impact on plasma glucose for the compounds analyzed in the matrix above.
Male Sprague Dawley rats (Charles River) weighing 250-275 g were made diabetic by a single intraperitoneal injection of streptozotocin (Sigma) at 65 mg/kg, prepared in fresh cold (4° C.) 0.01 M citrate buffer. Four days later, animals were bled in the fed state. Whole blood was collected via the tail tip and analyzed for glucose by the glucose oxidation method with a Glucometer Elite (Bayer). Mean blood glucose levels ranged from 450-550 mg/dl.
On the day of the experiment, the compound was dissolved in the vehicle comprised of 5% m-Pyrol, 20% PEG 400 and 20 mM Sodium Diphosphate. Rats were weighed, randomized into 4 groups with 6 rats in each group, and dosed orally with the vehicle or 0.1 mg/kg of the compound. The total volume for oral gavage was 1 ml/kg body weight. After dosing, the food was removed from the cages and the rats had access to water ad lib during the experiment. Blood samples were obtained from the tail tip at 0, 30, 60, 120, 180, 240 and 300 minutes following drug administration. Blood glucose was analyzed by the glucose oxidation method with a Glucometer Elite (Bayer).
A. Statistical Data Analysis
The calculation of mean blood glucose values and percent changes vs. vehicle at each time point were performed using Microsoft Excel. Statistical analyses (T tests, or ANOVA followed by Fisher's test) comparing drug-treated groups vs. vehicle controls) were performed using Microsoft Excel or the statistical program StatView. A p value of less that 0.05 was considered to be statistically significant.

[2] = Stability in presence of commonly used solid excipients under accelerated aging conditions (Study B); assay type: physicochemical; conditions: for Stability in a prototypical formulation: drug-excipient blends, accelerated aging conditions, 1 and 3 weeks, HPLC analysis
Description: II. Protocol for Study B: Stability Determination of Oxidatively Labile Therapeutic Agent in Presence of Commonly Used Solid Excipients, Under Accelerated Aging Conditions
The following procedure was utilized to access the chemical stability of the compound 3 in the presence of commonly used excipients and typical antioxidants.
The drug substance was triturated in a mortar pestle with the respective antioxidant, and then mixed in the dry state with other excipients listed in the following table. Sodium metabisulfite and butylated hydroxyl anisole (BHA) were used as antioxidants in this study. BHA was used at two levels, 0.01% w/w and 0.5% w/w, and sodium metabisulfite was used at 0.01% w/w. For samples stored at 40° C./[…] and HIL/uv, oxygen gas was purged into the vials and they were tightly capped. The drug-excipient blends (A-D) were placed under the different accelerated aging conditions listed within the second table for 1 and 3 weeks prior to HPLC analysis.

[3] = tested on: Chinese hamster ovary (CHO) cells; assay: Cytogenetics study in Chinese hamster ovary cells, in vitro clastogenicity / chromosome aberration (Study C); conditions: 3 hr with/without S9, 20 hr without S9
Description: (§1) The following protocol was utilized to predict the in vitro clastogenicity activity of compounds of therapeutic interest.
(§2) Clastogenicity was predicted by determining the potential of compounds of interest to induce structural chromosome damage in Chinese hamster ovary (CHO) cells.
(§3) The vehicle control is dimethyl sulfoxide (DMSO). The positive controls were Mitomycin C for the 3-hr and 20-hr exposure without S9 activation and cyclophosphamide for the 3-hr exposure with S9 rat-liver enzymes. Both Mitomycin C and cyclophosphamide were diluted with sterile water.
(§4) Two stock solutions in DMSO of the compound of interest were prepared—one being a high concentration, the other low. Aliquots of the vehicle control, low and high dosing solutions were collected following treatment of the CHO cells and subsequently analyzed to determine the concentration of the compound of interest. […] Once the upper limit of solubility of the compound of interest was determined in DMSO, that DMSO solution is added to culture medium to determine effects on pH or osmmolality. […]
(§5) The DMSO stock solution of the compound of interest was 100× concentration of the highest test-article concentration to be used in the full assay. […] The cytotoxicity dose response observed in the range finding study determined the serial dilution factor for the five lower doses. […]

[4] = tested on: Chinese hamster ovary (CHO) cells
Description: as §1, §2, §3, §4, §5

Stability in a prototypical formulation [2]	Chemical stability in the presence of excipients commonly used in solid dosage forms [2]	SMILES	% Decrease of plasma glucose in STZ diabetic rats at 5 hr after an oral dose of 0.1 mg/kg vs. vehicle treated controls [1] [%]	In vitro clastogenic activity [3]	In vitro clastogenic activity [4]
Yes	chemically stable	CCc1ccc(Cc2cc([C@@H]3O[C@H](CO)[C@@H](O)[C@H](O)[C@H]3O)ccc2Cl)cc1 [Compound 1]	62	–	–
No	–	CSc1ccc(Cc2cc([C@@H]3O[C@H](CO)[C@@H](O)[C@H](O)[C@H]3O)ccc2C)cc1 [Compound 3]	59	–	–
Yes	chemically stable	CCc1ccc(Cc2cccc([C@@H]3O[C@H](CO)[C@@H](O)[C@H](O)[C@H]3O)c2)cc1 [Compound 5]	34	–	Yes

SMILES	Stability in a prototypical formulation [2]	Chemical stability in the presence of excipients commonly used in solid dosage forms [2]	% Decrease of plasma glucose in STZ diabetic rats at 5 hr after an oral dose of 0.1 mg/kg vs. vehicle treated controls [1] [%]	In vitro clastogenic activity [3]	In vitro clastogenic activity [4]
CCOc1ccc(Cc2cc([C@@H]3O[C@H](CO)[C@@H](O)[C@H](O)[C@H]3O)ccc2Cl)cc1 [Compound 4]	Yes	chemically stable	60	Yes	–
